For experiment [1], the target named is Histamine H2 receptor (Homo sapiens) (UniProt P25021). The experiment can be described thus: Displacement of [125I]APT from human recombinant histamine H2 receptor at 10 uM after 120 mins by scintillation counting analysis relative to control.
Experiment [2] concerns the target T1, Bromodomain-containing protein 1 (Homo sapiens, UniProt O95696).
T1 sequence (O95696 whole entry): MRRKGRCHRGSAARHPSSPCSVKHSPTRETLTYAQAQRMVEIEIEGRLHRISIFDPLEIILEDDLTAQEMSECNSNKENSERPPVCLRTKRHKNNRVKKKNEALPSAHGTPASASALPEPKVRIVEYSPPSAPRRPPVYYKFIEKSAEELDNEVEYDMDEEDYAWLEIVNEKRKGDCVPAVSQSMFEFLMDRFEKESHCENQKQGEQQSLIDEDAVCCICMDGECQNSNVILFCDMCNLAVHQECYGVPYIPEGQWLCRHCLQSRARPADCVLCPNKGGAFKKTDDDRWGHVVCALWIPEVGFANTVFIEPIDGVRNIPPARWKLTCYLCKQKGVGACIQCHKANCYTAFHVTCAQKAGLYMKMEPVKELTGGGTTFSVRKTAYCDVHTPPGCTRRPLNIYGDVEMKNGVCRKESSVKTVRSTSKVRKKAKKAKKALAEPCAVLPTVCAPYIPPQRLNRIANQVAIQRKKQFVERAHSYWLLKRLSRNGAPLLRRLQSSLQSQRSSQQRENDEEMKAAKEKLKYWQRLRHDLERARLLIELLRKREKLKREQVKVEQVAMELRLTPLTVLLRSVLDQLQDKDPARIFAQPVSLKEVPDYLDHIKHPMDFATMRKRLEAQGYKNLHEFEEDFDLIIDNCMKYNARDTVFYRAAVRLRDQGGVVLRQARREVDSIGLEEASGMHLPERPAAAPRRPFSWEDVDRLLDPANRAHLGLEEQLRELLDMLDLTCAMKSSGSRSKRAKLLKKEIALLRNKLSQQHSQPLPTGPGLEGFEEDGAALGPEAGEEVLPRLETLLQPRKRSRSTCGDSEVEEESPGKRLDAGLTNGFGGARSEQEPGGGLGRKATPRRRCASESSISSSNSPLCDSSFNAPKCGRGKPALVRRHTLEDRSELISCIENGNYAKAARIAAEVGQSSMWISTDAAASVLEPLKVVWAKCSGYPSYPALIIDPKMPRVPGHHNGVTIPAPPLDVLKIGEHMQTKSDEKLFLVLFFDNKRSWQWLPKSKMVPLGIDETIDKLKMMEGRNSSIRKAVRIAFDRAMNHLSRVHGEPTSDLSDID
The experiment can be described thus: Binding affinity to human partial length BRD1 (E556 to A688 residues) expressed in bacterial expression system by BROMOscan assay.

The subject of experiment [3] is NCI-H2405. The experiment can be described thus: Cytotoxicity against human NCI-H2405 cells measured after 8 days. It counts as functional, cell-based. As to conditions: NCI-H2405, 192 h.
Experiment [4] relates to DU-145. The experiment can be described thus: Cytotoxicity against human DU-145 cells measured after 8 days. It counts as functional, cell-based. As to conditions: DU-145, 192 h.
Experiment [5] concerns the target T2, Interleukin-1 receptor-associated kinase 4 (Homo sapiens) (UniProt Q9NWZ3).
T2 sequence (whole entry): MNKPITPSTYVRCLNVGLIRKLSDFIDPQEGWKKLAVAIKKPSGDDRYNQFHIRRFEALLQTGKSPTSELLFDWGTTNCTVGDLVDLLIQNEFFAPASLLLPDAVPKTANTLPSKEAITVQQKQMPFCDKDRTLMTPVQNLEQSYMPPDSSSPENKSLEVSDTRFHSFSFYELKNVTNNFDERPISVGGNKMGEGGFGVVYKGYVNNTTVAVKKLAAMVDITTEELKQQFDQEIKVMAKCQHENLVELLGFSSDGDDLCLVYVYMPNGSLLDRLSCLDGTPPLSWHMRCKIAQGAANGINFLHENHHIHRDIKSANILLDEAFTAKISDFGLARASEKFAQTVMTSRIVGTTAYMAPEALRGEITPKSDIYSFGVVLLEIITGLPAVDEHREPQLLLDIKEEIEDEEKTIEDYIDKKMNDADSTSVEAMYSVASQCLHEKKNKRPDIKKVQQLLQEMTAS
The experiment can be described thus: Inhibition of IRAK4 (unknown origin) at 1 uM relative to control.

Experiment [6] concerns BEN. The experiment can be described thus: Cytotoxicity against human BEN cells measured after 8 days. It counts as functional, cell-based. As to conditions: 192 h.
Experiment [7] is described as follows: Cytotoxicity against human KE-97 cells measured after 8 days. As to conditions: KE-97, 192 h. It counts as functional, cell-based.
Experiment [8] addresses Adrenergic receptor alpha-2 (Rattus norvegicus) (UniProt P22086+P19328+P22909). Nature of the experiment: Displacement of [3H]-RX 821002 from rat alpha2 adrenoceptor at 10 uM after 60 mins by scintillation counting analysis relative to control. It counts as protein assay.
Experiment [9] in a line: Cytotoxicity against human HCC4011 cells measured after 8 days. In kind it is functional, cell-based. As to conditions: HCC4011, 192 h.
For experiment [10], the target named is Mitogen-activated protein kinase 14 (Homo sapiens) (UniProt Q16539). The experiment can be described thus: Inhibition of p38alpha (unknown origin) at 1 uM relative to control.
Sequence of Mitogen-activated protein kinase 14 (Homo sapiens) (Q16539 whole entry): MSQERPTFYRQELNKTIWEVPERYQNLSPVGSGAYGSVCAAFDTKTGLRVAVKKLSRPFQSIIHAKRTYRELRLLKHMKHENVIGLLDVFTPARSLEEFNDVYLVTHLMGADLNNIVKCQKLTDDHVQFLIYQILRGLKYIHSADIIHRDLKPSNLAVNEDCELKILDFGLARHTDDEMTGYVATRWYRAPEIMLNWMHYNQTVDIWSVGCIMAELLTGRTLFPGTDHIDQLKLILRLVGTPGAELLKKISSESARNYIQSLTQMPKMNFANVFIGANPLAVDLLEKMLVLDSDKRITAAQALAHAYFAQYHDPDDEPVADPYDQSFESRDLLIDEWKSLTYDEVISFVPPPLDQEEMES
Experiment [11] has as its system LCLC-97TM1. The experiment can be described thus: Cytotoxicity against human LCLC-97TM1 cells measured after 8 days. In kind it is functional, cell-based. As to conditions: LCLC-97TM1, 192 h.
For experiment [12], the system named is COLO 205. Nature of the experiment: Cytotoxicity against human COLO 205 cells measured after 8 days. In kind it is functional, cell-based. As to conditions: COLO 205, 192 h.
The subject of experiment [13] is UMC-11. Nature of the experiment: Cytotoxicity against human UMC-11 cells measured after 8 days. It counts as functional, cell-based. Conditions: UMC-11, 192 h.
Experiment [14] concerns COLO-741. The experiment can be described thus: Cytotoxicity against human COLO-741 cells measured after 8 days. In kind it is functional, cell-based. As to conditions: COLO-741, 192 h.
The subject of experiment [15] is SW480. Nature of the experiment: Cytotoxicity against human SW480 cells measured after 8 days. In kind it is functional, cell-based. Conditions: SW480, 192 h.
The nature of experiment [16]: Cytotoxicity against human OVTOKO cells measured after 8 days. It counts as functional, cell-based. Conditions: 192 h.

Sequence of Histamine H2 receptor (Homo sapiens) (P25021 whole entry): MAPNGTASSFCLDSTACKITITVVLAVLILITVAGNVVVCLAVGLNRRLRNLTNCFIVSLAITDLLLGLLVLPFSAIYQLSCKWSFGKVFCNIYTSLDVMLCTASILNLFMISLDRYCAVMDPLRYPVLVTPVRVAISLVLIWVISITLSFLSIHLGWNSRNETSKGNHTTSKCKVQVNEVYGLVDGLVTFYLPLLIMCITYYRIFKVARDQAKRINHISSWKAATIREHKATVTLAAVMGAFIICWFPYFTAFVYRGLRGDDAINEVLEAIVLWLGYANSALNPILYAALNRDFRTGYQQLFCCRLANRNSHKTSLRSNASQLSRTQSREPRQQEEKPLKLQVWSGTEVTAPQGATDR

With `C/C=C/Cn1cc(-c2ccc(C(C)(C)O)cc2OC)c2cc[nH]c2c1=O`, the Activity is 1% in [1] and -1% in experiment [8]. The Kd in experiment [2] was above 10 µM. The IC50 in [3], in experiment [4], in experiment [6], in experiment [7], in experiment [9] and in experiment [11] was 20 µM in each case. In addition, the IC50 in experiment [12], in [13], in [14], in [15] and in [16] was 20 µM in each case. For the same molecule, the figures for the inhibition in experiment [5] and in experiment [10] were 6% and 7%, respectively.
Regarding `C/C=C/Cn1cc(-c2ccc(C(=O)N3CCOCC3)cc2)c2cc[nH]c2c1=O`, the results for the Activity in experiment [1] and in experiment [8] were 6% and -7%, respectively. In addition, the Kd in experiment [2] was above 10 µM. The half-inhibitory concentration (IC50) in experiment [3], in [4], in experiment [6], in experiment [7], in experiment [9] and in experiment [11] was 20 µM in each case. Moreover, the IC50 in [12] worked out at 20 µM; in experiment [13], 20 µM; in [14], 20 µM; in experiment [15], 20 µM; in [16] it was 17.7 µM. Further, the results for the inhibition in [5] and in [10] were -4.9% and 0.9%, respectively.
With `C/C=C/Cn1cc(-c2cc(OC)c(C(=O)N3CCOCC3)cc2OC)c2cc(C)[nH]c2c1=O`, the Activity in experiment [1] was -5%; in experiment [8], -12%. For the same molecule, the Kd in experiment [2] was above 10 µM. Besides, the IC50 in experiment [3], in experiment [4], in [6], in experiment [7], in experiment [9] and in experiment [11] was 2 µM in each case. Besides, the IC50 in experiment [12], in experiment [13], in [14], in experiment [15] and in experiment [16] was 2 µM throughout. Also, the inhibition in experiment [5] was -3.5%; in [10], 3%.
In turn, `C/C=C/Cn1cc(-c2cc(OC)c(C(C)(C)O)cc2OC)c2cc(C)[nH]c2c1=O` yielded a Kd in [2] above 10 µM.

These data come from ChEMBL document CHEMBL5260810, “Inhibition of bromodomain-containing protein 9 for the prevention of epigenetically-defined drug resistance” (Bioorg Med Chem Lett, 2017).
